Assay results: patent publication US20100151021A1 (priority 2008, published 2010)

How the values were obtained:
[1] = system: psychosis associated with PD; conditions: initial open-label studies; cited from earlier work
[2] = Solubility of Melperone HCl in media; format: physicochemical; conditions: for solubility: phosphate buffer, aqueous buffer
[3] = system: psychosis in patients with PD; conditions: cited from earlier work
[4] = clinical; cited from earlier work
[5] = cited from earlier work

OCCOCCN1CCN(C2=Nc3ccccc3Sc3ccccc32)CC1 [quetiapine]
efficacy in psychosis associated with PD [1]: has shown efficacy | patients with worsening of motor symptoms of PD [1]: up to 30%

CC1CCN(CCCC(=O)c2ccc(F)cc2)CC1.Cl [Melperone HCl, 1-(4-fluorophenyl)-4-(4-methyl-1-piperidinyl)-1-butanone hydrochloride]
solubility ([2]; pH 7.0 (phosphate)): > 100 mg/mL | solubility ([2]; pH 7.8 (phosphate)): 25.6 mg/mL

CC1CCN(CCCC(=O)c2ccc(F)cc2)CC1 [melperone]
time over which efficacy was maintained ([3]; mean daily dose of 37.5 mg): 2 years | efficacy in the treatment of psychosis ([3]; patients with PD): has shown efficacy | onset of efficacy ([3]; patients with PD): within a week | incidence of extrapyramidal side effect (EPS) or tardive dyskinesia [4]: low incidence | mean Tmax ([5]; oral tablet administration): 1.5 to 3.0 h | absolute oral bioavailability ([5]; oral): 50-70% | Solubility in words ([2]; aqueous buffers at acidic to neutral pH conditions): freely soluble | Solubility in words ([2]; higher pH values (above pH=7.5)): poorly soluble
